Patent US6936585B2, “Corticotropin releasing factor 2 receptor agonists” (priority 2002, dated 2005)
pEC50: −log10 of the molar value. Peptide text beside a SMILES is read from it.

Assays:
[1] = biological target: T1, CRF2R (Homo sapiens, UniProt Q13324); test: CRF2R agonist activation (EC50 / Emax), called comparative CRF binding; format: cell-based; conditions: for Emax: read-out: CRF2R Emax
T1 sequence (Q13324 1-411): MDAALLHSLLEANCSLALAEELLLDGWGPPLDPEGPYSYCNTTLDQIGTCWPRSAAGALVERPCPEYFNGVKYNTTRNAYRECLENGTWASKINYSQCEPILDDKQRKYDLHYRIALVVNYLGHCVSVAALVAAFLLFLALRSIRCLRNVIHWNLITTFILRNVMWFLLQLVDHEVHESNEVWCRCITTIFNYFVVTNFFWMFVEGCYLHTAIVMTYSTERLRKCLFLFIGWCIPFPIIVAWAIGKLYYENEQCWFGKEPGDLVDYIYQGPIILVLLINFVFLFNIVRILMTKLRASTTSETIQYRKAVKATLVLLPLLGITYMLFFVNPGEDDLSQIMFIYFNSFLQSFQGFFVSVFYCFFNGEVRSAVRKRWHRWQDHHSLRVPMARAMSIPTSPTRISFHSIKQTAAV
Procedure, shortened: (§1)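 Receptor-expressing cells are contacted with test peptide or the vehicle it is dissolved in. Lysates are then assayed for cAMP, or expression of a CRE-coupled reporter is quantitated. Engineered cells carrying receptor-G-protein fusions may replace full-length receptors.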

[2] = biological target: T2, CRF1R (Homo sapiens, UniProt P34998); test: CRF1R agonist activation (EC50 / Emax), called comparative CRF binding; format: cell-based; conditions: for Emax: read-out: CRF1R Emax
T2 sequence (P34998 24-415): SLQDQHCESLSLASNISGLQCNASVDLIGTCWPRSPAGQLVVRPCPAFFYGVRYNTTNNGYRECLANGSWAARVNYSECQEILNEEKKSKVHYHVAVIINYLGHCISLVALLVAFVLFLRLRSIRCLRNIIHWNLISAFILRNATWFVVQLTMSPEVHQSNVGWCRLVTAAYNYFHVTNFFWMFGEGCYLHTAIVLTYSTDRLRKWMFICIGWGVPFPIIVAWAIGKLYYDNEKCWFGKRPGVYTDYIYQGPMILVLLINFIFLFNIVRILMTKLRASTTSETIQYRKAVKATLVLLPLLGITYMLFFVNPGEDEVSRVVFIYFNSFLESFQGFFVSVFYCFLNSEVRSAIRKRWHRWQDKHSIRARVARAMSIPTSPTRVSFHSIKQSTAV
Procedure, shortened: as §1

| SMILES | Emax [1] [%] | Emax [2] [%] | pEC50 ([1]; read-out: CRF2R EC50) | pEC50 ([2]; read-out: CRF1R EC50) |
| --- | --- | --- | --- | --- |
| CC[C@H](C)[C@H](NC(=O)[C@H](C)NC(=O)[C@H](CC(N)=O)NC(=O)[C@H](CCC(N)=O)NC(=O)[C@H](CCC(=O)O)NC(=O)[C@H](C)NC(=O)[C@H](CCCNC(=N)N)NC(=O)[C@H](CCC(=O)O)NC(=O)[C@H](CCCNC(=N)N)NC(=O)[C@H](CCC(N)=O)NC(=O)[C@H](CO)NC(=O)[C@H](CCC(N)=O)NC(=O)[C@@H](NC(=O)[C@H](CCCNC(=N)N)NC(=O)[C@H](C)NC(=O)[C@H](CC(C)C)NC(=O)[C@H](CCC(=O)O)NC(=O)[C@H](CC(C)C)NC(=O)[C@H](CC(C)C)NC(=O)[C@@H](NC(=O)[C@H](CCCNC(=N)N)NC(=O)[C@H](CC(C)C)NC(=O)[C@H](CC(C)C)NC(=O)[C@H](CCC(N)=O)NC(=O)[C@H](CC(C)C)NC(=O)[C@@H]1CCCN1C(=O)[C@H](CC(C)C)NC(=O)[C@H](CC(=O)O)NC(=O)[C@@H](NC(=O)[C@H](CO)NC(=O)[C@H](CC(C)C)NC(=O)[C@H](CO)NC(=O)[C@@H]1CCCN1C(=O)[C@H](CC(N)=O)NC(=O)[C@@H](N)CC(=O)O)[C@@H](C)CC)[C@@H](C)O)[C@@H](C)O)C(=O)N[C@H](C(=O)N[C@@H](Cc1ccccc1)C(=O)N[C@@H](C)C(=O)N[C@@H](CO)C(=O)N[C@H](C(N)=O)C(C)C)[C@@H](C)CC [compound 176] (H-DNPSLSIDLPLQLLRTLLELARTQSQRERAEQNAIIFASV-NH2; N-terminus assumed) | 90.2 | 26.9 | – | – |
| CC[C@H](C)[C@H](NC(=O)[C@H](C)NC(=O)[C@H](CC(N)=O)NC(=O)[C@H](CCC(N)=O)NC(=O)[C@H](CCC(=O)O)NC(=O)[C@H](C)NC(=O)[C@H](CCCNC(=N)N)NC(=O)[C@H](CCC(=O)O)NC(=O)[C@H](CCCNC(=N)N)NC(=O)[C@H](CCC(N)=O)NC(=O)[C@H](CO)NC(=O)[C@H](CCC(N)=O)NC(=O)[C@@H](NC(=O)[C@H](CCCNC(=N)N)NC(=O)[C@H](C)NC(=O)[C@H](CC(C)C)NC(=O)[C@H](CCC(=O)O)NC(=O)[C@H](CC(C)C)NC(=O)[C@H](CC(C)C)NC(=O)[C@@H](NC(=O)[C@H](CCCNC(=N)N)NC(=O)[C@H](CC(C)C)NC(=O)[C@H](CC(C)C)NC(=O)[C@H](Cc1ccc(O)cc1)NC(=O)[C@H](CC(C)C)NC(=O)[C@@H]1CCCN1C(=O)[C@H](CC(C)C)NC(=O)[C@H](CC(=O)O)NC(=O)[C@@H](NC(=O)[C@H](CO)NC(=O)[C@H](CC(C)C)NC(=O)[C@H](CO)NC(=O)[C@@H]1CCCN1C(=O)[C@H](CC(N)=O)NC(=O)[C@@H](N)CC(=O)O)[C@@H](C)CC)[C@@H](C)O)[C@@H](C)O)C(=O)N[C@H](C(=O)N[C@@H](Cc1ccccc1)C(=O)N[C@@H](C)C(=O)N[C@@H](CO)C(=O)N[C@H](C(N)=O)C(C)C)[C@@H](C)CC [compound 177] (H-DNPSLSIDLPLYLLRTLLELARTQSQRERAEQNAIIFASV-NH2; N-terminus assumed) | 97.7 | 69.2 | – | – |
| CC[C@H](C)[C@H](NC(=O)[C@H](C)NC(=O)[C@H](CC(N)=O)NC(=O)[C@H](CCC(N)=O)NC(=O)[C@H](CCC(=O)O)NC(=O)[C@H](C)NC(=O)[C@H](CCCNC(=N)N)NC(=O)[C@H](CCC(=O)O)NC(=O)[C@H](CCCNC(=N)N)NC(=O)[C@H](CCC(N)=O)NC(=O)[C@H](CO)NC(=O)[C@H](CCC(N)=O)NC(=O)[C@@H](NC(=O)[C@H](CCCNC(=N)N)NC(=O)[C@H](C)NC(=O)[C@H](CC(C)C)NC(=O)[C@H](CCC(=O)O)NC(=O)[C@H](CC(C)C)NC(=O)[C@H](CC(C)C)NC(=O)[C@@H](NC(=O)[C@H](CCCNC(=N)N)NC(=O)[C@H](CC(C)C)NC(=O)[C@H](CC(C)C)NC(=O)[C@H](Cc1ccccc1)NC(=O)[C@H](CC(C)C)NC(=O)[C@@H]1CCCN1C(=O)[C@H](CC(C)C)NC(=O)[C@H](CC(=O)O)NC(=O)[C@@H](NC(=O)[C@H](CO)NC(=O)[C@H](CC(C)C)NC(=O)[C@H](CO)NC(=O)[C@@H]1CCCN1C(=O)[C@H](CC(N)=O)NC(=O)[C@@H](N)CC(=O)O)[C@@H](C)CC)[C@@H](C)O)[C@@H](C)O)C(=O)N[C@H](C(=O)N[C@@H](Cc1ccccc1)C(=O)N[C@@H](C)C(=O)N[C@@H](CO)C(=O)N[C@H](C(N)=O)C(C)C)[C@@H](C)CC [compound 178] (H-DNPSLSIDLPLFLLRTLLELARTQSQRERAEQNAIIFASV-NH2; N-terminus assumed) | 96.5 | 55.7 | – | – |
| CC[C@H](C)[C@H](NC(=O)[C@H](C)NC(=O)[C@H](CC(N)=O)NC(=O)[C@H](CCC(N)=O)NC(=O)[C@H](CCC(=O)O)NC(=O)[C@H](C)NC(=O)[C@H](CCCNC(=N)N)NC(=O)[C@H](CCC(=O)O)NC(=O)[C@H](CCCNC(=N)N)NC(=O)[C@H](CCC(N)=O)NC(=O)[C@H](CO)NC(=O)[C@H](CCC(N)=O)NC(=O)[C@@H](NC(=O)[C@H](CCCNC(=N)N)NC(=O)[C@H](C)NC(=O)[C@H](CC(C)C)NC(=O)[C@H](CCC(=O)O)NC(=O)[C@H](CC(C)C)NC(=O)[C@H](CC(C)C)NC(=O)[C@@H](NC(=O)[C@H](CCCNC(=N)N)NC(=O)[C@H](CC(C)C)NC(=O)[C@H](CC(C)C)NC(=O)[C@H](Cc1c[nH]cn1)NC(=O)[C@H](CC(C)C)NC(=O)[C@@H]1CCCN1C(=O)[C@H](CC(C)C)NC(=O)[C@H](CC(=O)O)NC(=O)[C@@H](NC(=O)[C@H](CO)NC(=O)[C@H](CC(C)C)NC(=O)[C@H](CO)NC(=O)[C@@H]1CCCN1C(=O)[C@H](CC(N)=O)NC(=O)[C@@H](N)CC(=O)O)[C@@H](C)CC)[C@@H](C)O)[C@@H](C)O)C(=O)N[C@H](C(=O)N[C@@H](Cc1ccccc1)C(=O)N[C@@H](C)C(=O)N[C@@H](CO)C(=O)N[C@H](C(N)=O)C(C)C)[C@@H](C)CC [compound 179] (H-DNPSLSIDLPLHLLRTLLELARTQSQRERAEQNAIIFASV-NH2; N-terminus assumed) | 92.5 | 78.9 | – | – |
| CC[C@H](C)[C@H](NC(=O)[C@H](C)NC(=O)[C@H](CC(N)=O)NC(=O)[C@H](CCC(N)=O)NC(=O)[C@H](CCC(=O)O)NC(=O)[C@H](C)NC(=O)[C@H](CCCNC(=N)N)NC(=O)[C@H](CCC(=O)O)NC(=O)[C@H](CCCNC(=N)N)NC(=O)[C@H](CCC(N)=O)NC(=O)[C@H](CO)NC(=O)[C@H](CCC(N)=O)NC(=O)[C@@H](NC(=O)[C@H](CCCNC(=N)N)NC(=O)[C@H](C)NC(=O)[C@H](CC(C)C)NC(=O)[C@H](CCC(=O)O)NC(=O)[C@H](CC(C)C)NC(=O)[C@H](CC(C)C)NC(=O)[C@@H](NC(=O)[C@H](CCCNC(=N)N)NC(=O)[C@H](CC(C)C)NC(=O)[C@H](CC(C)C)NC(=O)[C@H](CC(C)C)NC(=O)[C@H](Cc1ccccc1)NC(=O)[C@@H]1CCCN1C(=O)[C@H](CC(C)C)NC(=O)[C@H](CC(=O)O)NC(=O)[C@@H](NC(=O)[C@H](CO)NC(=O)[C@H](CC(C)C)NC(=O)[C@H](CO)NC(=O)[C@@H]1CCCN1C(=O)[C@H](CC(N)=O)NC(=O)[C@@H](N)CC(=O)O)[C@@H](C)CC)[C@@H](C)O)[C@@H](C)O)C(=O)N[C@H](C(=O)N[C@@H](Cc1ccccc1)C(=O)N[C@@H](C)C(=O)N[C@@H](CO)C(=O)N[C@H](C(N)=O)C(C)C)[C@@H](C)CC [compound 180] (H-DNPSLSIDLPFLLLRTLLELARTQSQRERAEQNAIIFASV-NH2; N-terminus assumed) | 95.7 | 99.3 | 8.50 | 6.90 |
| CC[C@H](C)[C@H](NC(=O)[C@H](C)NC(=O)[C@H](CC(N)=O)NC(=O)[C@H](CCC(N)=O)NC(=O)[C@H](CCC(=O)O)NC(=O)[C@H](C)NC(=O)[C@H](CCCNC(=N)N)NC(=O)[C@H](CCC(=O)O)NC(=O)[C@H](CCCNC(=N)N)NC(=O)[C@H](CCC(N)=O)NC(=O)[C@H](CO)NC(=O)[C@H](CCC(N)=O)NC(=O)[C@@H](NC(=O)[C@H](CCCNC(=N)N)NC(=O)[C@H](C)NC(=O)[C@H](CC(C)C)NC(=O)[C@H](CCC(=O)O)NC(=O)[C@H](CC(C)C)NC(=O)[C@H](CC(C)C)NC(=O)[C@@H](NC(=O)[C@H](CCCNC(=N)N)NC(=O)[C@H](CC(C)C)NC(=O)[C@H](CC(C)C)NC(=O)[C@@H](NC(=O)[C@H](Cc1ccccc1)NC(=O)[C@@H]1CCCN1C(=O)[C@H](CC(C)C)NC(=O)[C@H](CC(=O)O)NC(=O)[C@@H](NC(=O)[C@H](CO)NC(=O)[C@H](CC(C)C)NC(=O)[C@H](CO)NC(=O)[C@@H]1CCCN1C(=O)[C@H](CC(N)=O)NC(=O)[C@@H](N)CC(=O)O)[C@@H](C)CC)[C@@H](C)CC)[C@@H](C)O)[C@@H](C)O)C(=O)N[C@H](C(=O)N[C@@H](Cc1ccccc1)C(=O)N[C@@H](C)C(=O)N[C@@H](CO)C(=O)N[C@H](C(N)=O)C(C)C)[C@@H](C)CC [compound 181] (H-DNPSLSIDLPFILLRTLLELARTQSQRERAEQNAIIFASV-NH2; N-terminus assumed) | 97.8 | 100 | – | – |
